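Method: 48-hour compound exposure of cells in 96-well plates, five concentrations, linear interpolation of endpoints. At the GI50, growth is halved. TGI is the concentration that stops growth completely.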
Legend:
Test in all cases: DTP human tumour cell line panel, 48 h
SN12C renal = test system: SN12C renal
MCF7 breast = test system: MCF7 breast
MDA-MB-435 = test system: MDA-MB-435
MDA-MB-231 breast = test system: MDA-MB-231 breast
UO-31 renal = test system: UO-31 renal
SK-OV-3 ovarian = test system: SK-OV-3 ovarian
NCI-H522 lung = test system: NCI-H522 lung
HCT-15 colon = test system: HCT-15 colon
NCI-H226 lung = test system: NCI-H226 lung
EKVX NSCLC = test system: EKVX NSCLC

| Compound | GI50 (SN12C renal) [µM] | TGI (SN12C renal) [µM] | GI50 (MCF7 breast) [µM] | TGI (MCF7 breast) [µM] | GI50 (MDA-MB-435) [µM] | TGI (MDA-MB-435) [µM] | GI50 (MDA-MB-231 breast) [µM] | TGI (MDA-MB-231 breast) [µM] | GI50 (UO-31 renal) [µM] | GI50 (SK-OV-3 ovarian) [µM] | TGI (SK-OV-3 ovarian) [µM] | GI50 (NCI-H522 lung) [µM] | TGI (NCI-H522 lung) [µM] | GI50 (HCT-15 colon) [µM] | TGI (HCT-15 colon) [µM] | GI50 (NCI-H226 lung) [µM] | TGI (NCI-H226 lung) [µM] | GI50 (EKVX NSCLC) [µM] | TGI (EKVX NSCLC) [µM] | TGI (UO-31 renal) [µM] |
| --- | --- | --- | --- | --- | --- | --- | --- | --- | --- | --- | --- | --- | --- | --- | --- | --- | --- | --- | --- | --- |
| CCC(=C/[C@H](C)C/C=C/C(C)=C/[C@@H](C)C(=O)[C@@H](C)[C@H](O)[C@@H](C)CC)/C=C/[C@@H]1OC(=O)C=C[C@H]1C | < 0.01 | 1.41 | < 0.01 | 1.23 | < 0.01 | < 0.01 | < 0.01 | 1.77 | < 0.01 | < 0.01 | < 0.0115 | < 0.01 | < 0.01 | < 0.01 | 0.396 | < 0.01 | 0.0539 | < 0.01 | 13 | – |
| Oc1ccc(C(c2ccc(O)cc2)c2ccc(O)cc2)cc1 | – | 43.9 | – | > 100 | – | 46.1 | – | 41.8 | – | – | 42 | – | 32.9 | – | 55.3 | – | 67.3 | – | 46.8 | 44.6 |
| Nc1nnnn1CCO | – | > 100 | – | > 100 | – | > 100 | – | > 100 | – | – | > 100 | – | > 100 | – | > 100 | – | > 100 | – | > 100 | > 100 |
| Cc1cc(Cc2cc(C)c(NC(=O)C(=O)C3CCC4=C(SC5C=CC=CC5N4)C3=O)c(C(C)C)c2)cc(C(C)C)c1NC(=O)C(=O)C1CCC2=C(SC3C=CC=CC3N2)C1=O (centres undefined) | – | > 100 | – | > 100 | – | > 100 | – | > 100 | – | – | > 100 | – | 67.2 | – | > 100 | – | > 100 | – | > 100 | > 100 |
| C#Cc1c(/C=C/C(=O)OCC)ccc2ccccc12 | 13.3 | 39.4 | 24 | > 100 | 2.11 | 5.78 | 13.4 | 35 | 12.7 | 58.8 | > 100 | 13.4 | 31.1 | 9.99 | 97.3 | 19.9 | 82.9 | 28 | 84.3 | 26.6 |
| C=CC(=O)Nc1cc(C)ccc1Nc1nc(Nc2cc(OC)ncc2C)ncc1C(F)(F)F | 0.714 | > 100 | 0.864 | > 32.8 | 0.308 | 3.85 | 0.336 | 1.87 | 0.214 | 4.09 | > 100 | 1.14 | > 31.6 | 1.05 | > 28.5 | 0.901 | 4.39 | 0.438 | 3.1 | 2.27 |
| CCN(CC)CCCNCc1cc(-c2ccccc2)nc2ccccc12 | 4.52 | > 100 | 4.12 | 16.9 | 4.47 | 24.3 | 3.99 | 24 | 3.96 | 52.1 | > 100 | 15.9 | 52.3 | 3.24 | 45.8 | 19.8 | > 100 | 89.2 | > 100 | 50.5 |
| O=c1cc(-c2cccc3c2Sc2ccccc2S3)oc(N2CCOCC2)c1 | 6.17 | 21.8 | 5.94 | 22.4 | 3.54 | 13.5 | 11.8 | 29.5 | 1.79 | 13.4 | 27.3 | 8.01 | 22.6 | 8.68 | 24.3 | 10.8 | 34.3 | 10.2 | 25 | 15.8 |
| CCOC(=O)C1c2[nH]c3ccccc3c2CCN1C(=O)c1ccc(OC)o1 (centres undefined) | – | > 10 | – | > 10 | – | > 10 | – | > 10 | – | – | > 10 | – | > 10 | – | > 10 | – | > 10 | – | > 10 | > 10 |
| O=C(Nc1ccncc1)C(=O)c1cn(S(=O)(=O)c2ccc(Cl)cc2)c2ccccc12 | 2.02 | > 100 | 0.354 | 38.7 | 0.106 | 0.521 | 3.69 | 32.3 | 9.18 | 19.6 | 73.8 | 0.279 | 1.08 | 0.45 | > 100 | 9.4 | > 100 | 2.62 | > 100 | > 100 |
| CCN(CC)CC(O)CNc1c2ccc([N+](=O)[O-])cc2nc2cc(OC)c(OC)cc12 (centres undefined) | 0.335 | 2.79 | 0.0534 | 0.761 | 0.374 | 1.42 | 0.244 | 0.883 | 2.21 | 0.535 | 2.84 | 0.267 | 0.823 | 0.854 | 3.6 | 0.392 | 2.01 | 0.336 | 1.85 | 12.9 |
| N=c1ccn(O)cc1/C=C1/C(=O)Nc2ccccc21 | > 100 | > 100 | > 100 | > 100 | > 100 | > 100 | > 100 | > 100 | > 100 | > 100 | > 100 | > 100 | > 100 | > 100 | > 100 | > 100 | > 100 | > 100 | > 100 | > 100 |

— PubChem BioAssay (NCI)
